These results are taken from patent US20240409585A1, “MACROCYCLIC IMMUNOMODULATORS” (priority 2021, published 2024).

Bridge positions count the residues as written; N and C are the ends. Square brackets hold non-standard residues; d marks the D form. Peptide text beside a SMILES is read from it. * marks the point of attachment. ξ: configuration not given here. Phe(3-CF3) = N[C@@H](Cc1cccc(C(F)(F)F)c1)C(=O)O; Ala(morpholin-4-yl) = N[C@@H](CN1CCOCC1)C(=O)O; Phe(4-COOH) = N[C@@H](Cc1ccc(C(=O)O)cc1)C(=O)O; Phe(4-CH2NH2) = NCc1ccc(C[C@H](N)C(=O)O)cc1; Bip = N[C@@H](Cc1ccc(-c2ccccc2)cc1)C(=O)O; Phe(3-Me) = Cc1cccc(C[C@H](N)C(=O)O)c1; Val(3-OH) = CC(C)(O)[C@H](N)C(=O)O; Cha = N[C@@H](CC1CCCCC1)C(=O)O; Cit = NC(=O)NCCC[C@H](N)C(=O)O; Ile(3ξ) = CCC(C)[C@H](N)C(=O)O; Thr(3ξ) = CC(O)[C@H](N)C(=O)O; Ala(CN) = N#CC[C@H](N)C(=O)O; Carboxymethyl = O=C(O)C*; NMeA = CN[C@@H](C)C(=O)O; Orn = NCCC[C@H](N)C(=O)O; Pra = C#CC[C@H](N)C(=O)O; Dab = NCC[C@H](N)C(=O)O

The first experiment deals with T1, PE-labeled human PD-L1-Ig binding to Jurkat cell line over-expressing human PD-1 (Jurkat-PD-1) (Homo sapiens, UniProt Q15116).
T1 construct: expressed in transfected cells; host or cells: Jurkat
T1 sequence (Q15116 25-288): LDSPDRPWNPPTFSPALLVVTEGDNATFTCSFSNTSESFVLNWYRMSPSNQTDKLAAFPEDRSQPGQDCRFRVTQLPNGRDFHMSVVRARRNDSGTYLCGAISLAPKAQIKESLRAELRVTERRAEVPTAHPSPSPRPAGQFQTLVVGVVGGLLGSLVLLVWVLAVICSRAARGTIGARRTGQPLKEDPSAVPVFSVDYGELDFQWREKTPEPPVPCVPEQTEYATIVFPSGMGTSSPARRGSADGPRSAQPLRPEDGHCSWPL
As to the kind of experiment: Jurkat-PD-1 Cell Binding High-Content Screening Assay (CBA): Method 1. The conditions noted are these: Jurkat HPDL1 PD1 IC50 (Method 1), cells printed in nM.
As a reminder, the IC50 is the concentration needed to halve the response being measured. On to `CC(C)C[C@H]1NC(=O)[C@H](C)N(C)C(=O)[C@H](Cc2ccc(C(=O)O)cc2)NC(=O)[C@H](Cc2ccc(-c3ccccc3)cc2)NC(=O)[C@H](Cc2ccc(C(=O)O)cc2)NC(=O)[C@H](Cc2cccc(C(F)(F)F)c2)NC(=O)[C@H](CC(=O)O)NC(=O)[C@H](Cc2ccc(C(=O)O)cc2)NC(=O)[C@H](CN2CCOCC2)NC(=O)CSC[C@@H](C(=O)N[C@@H](CCN)C(N)=O)NC(=O)[C@H](CCC(=O)O)NC(=O)[C@H](C(C)C)NC(=O)[C@H](CC2CCCCC2)NC(=O)[C@H](CCN)NC1=O` [Example 2268] ({CH2CO}-[Ala(morpholin-4-yl)][Phe(4-COOH)]D[Phe(3-CF3)][Phe(4-COOH)][Bip][Phe(4-COOH)][NMeA][dL][Dab][Cha]VEC[Dab]-NH2; thioether N-14), for which the IC50 is 1.3 nM.

The same experiment, now with this note: Jurkat-hPD-1 cells, PE-labeled PD-L1-Ig 20 nM final; read-out: Jurkat HPDL1 PD1 IC50 (uM) (Method 1).
With `CC(C)C[C@H]1NC(=O)[C@H](C)N(C)C(=O)[C@H](C(C)C)NC(=O)[C@H](Cc2ccc(-c3ccccc3)cc2)NC(=O)[C@H](C(C)C)NC(=O)[C@H](Cc2c[nH]c3ccccc23)NC(=O)[C@H](CC(=O)O)NC(=O)[C@H](Cc2ccc(CN)cc2)NC(=O)[C@H](Cc2ccc(OCC(=O)O)cc2)NC(=O)CSC[C@@H](C(N)=O)NC(=O)[C@H](CO)NC(=O)[C@H](C(C)C)NC(=O)[C@H](CC2CCCCC2)NC(=O)[C@H](CC(N)=O)NC1=O` [Compound 2243] ({CH2CO}-Y(Carboxymethyl)[Phe(4-CH2NH2)]DWV[Bip]V[NMeA][dL]N[Cha]VSC-NH2; thioether N-14), the IC50 worked out at 20 nM. Same read-out and setting: the figure for `CC(C)C[C@H]1NC(=O)[C@H](C)N(C)C(=O)[C@H](CCCNC(N)=O)NC(=O)[C@H](Cc2ccc(-c3ccccc3)cc2)NC(=O)[C@H](C(C)C)NC(=O)[C@H](Cc2c[nH]c3ccccc23)NC(=O)[C@H](CC(=O)O)NC(=O)[C@H](Cc2ccc(O)cc2)NC(=O)[C@H](CC(N)=O)NC(=O)CSC[C@@H](C(=O)N[C@@H](C)C(N)=O)NC(=O)[C@H]([C@@H](C)O)NC(=O)[C@H](C(C)C)NC(=O)[C@H](CC2CCCCC2)NC(=O)[C@H](CCN)NC1=O` [Compound 1287] ({CH2CO}-NYDWV[Bip][Cit][NMeA][dL][Dab][Cha]VTCA-NH2; thioether N-14) is 10 nM. As for `CC(C)C[C@@H]1NC(=O)[C@H](Cc2c[nH]c3ccccc23)NC(=O)[C@H](CC(=O)O)NC(=O)[C@H](Cc2ccc(C(=O)O)cc2)NC(=O)[C@H](Cc2ccc(OCC(=O)O)cc2)NC(=O)CSC[C@@H](C(=O)N[C@@H](CC(N)=O)C(N)=O)NC(=O)[C@H](CO)NC(=O)[C@H](C(C)C)NC(=O)[C@H](CC2CCCCC2)NC(=O)[C@H](CCN)NC(=O)[C@@H](CC(C)C)NC(=O)[C@H](C)N(C)C(=O)[C@H](C(C)C)NC(=O)[C@H](Cc2ccc(-c3ccccc3)cc2)NC1=O` [Compound 1911] ({CH2CO}-Y(Carboxymethyl)[Phe(4-COOH)]DWL[Bip]V[NMeA][dL][Dab][Cha]VSCN-NH2; thioether N-14), the IC50 turned out to be 10 nM. On the same count and under the same terms, to `CCC(C)[C@@H]1NC(=O)[C@H](Cc2ccc(-c3ccccc3)cc2)NC(=O)[C@H](CC(C)C)NC(=O)[C@H](Cc2c[nH]c3ccccc23)NC(=O)[C@H](CC(=O)O)NC(=O)[C@H](Cc2ccc(OCC(=O)O)cc2)NC(=O)[C@H](C(C)O)NC(=O)CSC[C@@H](C(=O)N[C@@H](CC(N)=O)C(=O)O)NC(=O)[C@H](CC#N)NC(=O)[C@H](C(C)C)NC(=O)[C@H](CC(C)C)NC(=O)[C@H](CCN)NC(=O)[C@@H](CC(C)C)NC(=O)[C@H](C)N(C)C1=O` (stereo partly drawn) [Compound 2226] ({CH2CO}-[Thr(3ξ)]Y(Carboxymethyl)DWL[Bip][Ile(3ξ)][NMeA][dL][Dab]LV[Ala(CN)]CN-OH; thioether N-14) belongs 60 nM.

Consider `CC(C)C[C@@H]1NC(=O)[C@H](Cc2c[nH]c3ccccc23)NC(=O)[C@H](CC(=O)O)NC(=O)[C@H](Cc2ccc(C(=O)O)cc2)NC(=O)[C@H](Cc2ccc(OCC(=O)O)cc2)NC(=O)CSC[C@@H](C(=O)NCC(N)=O)NC[C@H](CO)NC(=O)[C@H](C(C)C)NC(=O)[C@H](CC2CCCCC2)NC(=O)[C@H](CC(N)=O)NC(=O)[C@@H](CC(C)C)NC(=O)[C@H](C)N(C)C(=O)[C@H](C(C)C)NC(=O)[C@H](Cc2ccc(-c3ccccc3)cc2)NC1=O` [Compound 1623], for which the IC50 turned out to be 190 nM. Consider `CC(C)C[C@H]1NC(=O)[C@H](C)N(C)C(=O)[C@H](CCC(N)=O)NC(=O)[C@H](Cc2ccc(-c3ccccc3)cc2)NC(=O)[C@H](Cc2ccc(C(=O)O)cc2)NC(=O)[C@H](Cc2cccc(C(F)(F)F)c2)NC(=O)[C@H](CC(N)=O)NC(=O)[C@H](Cc2ccc(OCC(=O)O)cc2)NC(=O)[C@H](CN2CCOCC2)NC(=O)CSC[C@@H](C(=O)N[C@@H](CCN)C(N)=O)NC(=O)[C@H](CCCN)NC(=O)[C@H](C(C)C)NC(=O)[C@H](CC2CCCCC2)NC(=O)[C@H](CCN)NC1=O` [Example 2280] ({CH2CO}-[Ala(morpholin-4-yl)]Y(Carboxymethyl)N[Phe(3-CF3)][Phe(4-COOH)][Bip]Q[NMeA][dL][Dab][Cha]V[Orn]C[Dab]-NH2; thioether N-14), for which the IC50 was found to be 140 nM.

Consider `Cc1cccc(C[C@@H]2NC(=O)[C@H](CC(=O)O)NC(=O)[C@H](Cc3ccc(C(=O)O)cc3)NC(=O)[C@H](Cc3ccc(OCC(=O)O)cc3)NC(=O)CSC[C@@H](C(=O)N[C@@H](C)C(N)=O)NC(=O)[C@H]([C@@H](C)O)NC(=O)[C@H](C(C)C)NC(=O)[C@H](CC(C)C)NC(=O)[C@H](CCN)NC(=O)[C@@H](CC(C)C)NC(=O)[C@H](C)N(C)C(=O)[C@H](C(C)C)NC(=O)[C@H](Cc3ccc(-c4ccccc4)cc3)NC(=O)[C@H](C(C)C)NC2=O)c1` [Compound 1571] ({CH2CO}-Y(Carboxymethyl)[Phe(4-COOH)]D[Phe(3-Me)]V[Bip]V[NMeA][dL][Dab]LVTCA-NH2; thioether N-14), for which the IC50 stood at 10 nM.

In the case of `C#CC[C@H](NC(=O)[C@@H](C)NC(=O)[C@@H]1CSCC(=O)N[C@@H](Cc2c[nH]cn2)C(=O)N[C@@H](Cc2ccc(OCC(=O)O)cc2)C(=O)N[C@@H](CC(=O)O)C(=O)N[C@@H](Cc2c[nH]c3ccccc23)C(=O)N[C@@H](C(C)C)C(=O)N[C@@H](Cc2ccc(-c3ccccc3)cc2)C(=O)N[C@@H](C(C)C)C(=O)N(C)[C@@H](C)C(=O)N[C@H](CC(C)C)C(=O)N[C@@H](CCN)C(=O)N[C@@H](CC2CCCCC2)C(=O)N[C@@H](C(C)(C)O)C(=O)N[C@@H](CO)C(=O)N1)C(N)=O` [Compound 1942] ({CH2CO}-HY(Carboxymethyl)DWV[Bip]V[NMeA][dL][Dab][Cha][Val(3-OH)]SC[dA][Pra]-NH2; thioether N-14), the IC50 worked out at 10 nM. On to `CC(C)C[C@@H]1NC(=O)[C@H](CCN)NC(=O)[C@@H](CC(C)C)NC(=O)[C@H](C)N(C)C(=O)[C@H](Cc2c[nH]c3ccccc23)NC(=O)[C@H](Cc2ccc(-c3ccccc3)cc2)NC(=O)[C@H](C(C)C)NC(=O)[C@H](Cc2c[nH]c3ccccc23)NC(=O)[C@H](CC(=O)O)NC(=O)[C@H](Cc2ccc(O)cc2)NC(=O)[C@H](CC(N)=O)NC(=O)CSC[C@@H](C(=O)N[C@@H](C)C(N)=O)NC(=O)[C@H]([C@@H](C)O)NC(=O)[C@H](C(C)C)NC1=O` [Compound 1263] ({CH2CO}-NYDWV[Bip]W[NMeA][dL][Dab]LVTCA-NH2; thioether N-14), for which the concentration for half-maximal inhibition (IC50) amounted to 890 nM.
